Data on 15 molecules can be found in patent publication US8791132B2, “Compounds and methods for treatment of hypertension” (Medivation Technologies, Inc., priority 2011, dated 2014).

The target in assay [1] is T1, human recombinant adrenergic α2B receptor (Homo sapiens, UniProt P18089).
T1 construct: expressed in transfected cells; host or cells: CHO-K1
T1 sequence (P18089 1-450): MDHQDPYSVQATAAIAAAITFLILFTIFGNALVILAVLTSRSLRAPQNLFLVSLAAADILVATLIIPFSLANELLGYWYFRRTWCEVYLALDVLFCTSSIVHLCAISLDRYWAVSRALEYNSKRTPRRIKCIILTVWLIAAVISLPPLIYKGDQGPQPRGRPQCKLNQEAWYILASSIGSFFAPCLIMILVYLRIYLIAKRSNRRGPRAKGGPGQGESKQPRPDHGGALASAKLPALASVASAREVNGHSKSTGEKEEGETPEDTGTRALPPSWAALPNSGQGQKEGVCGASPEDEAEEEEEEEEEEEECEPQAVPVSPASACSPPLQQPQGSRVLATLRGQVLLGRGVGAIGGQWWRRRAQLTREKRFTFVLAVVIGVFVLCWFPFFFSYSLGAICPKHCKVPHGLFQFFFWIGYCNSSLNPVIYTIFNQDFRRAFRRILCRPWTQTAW
The assay can be described thus: Radioligand binding, adrenergic α2B ([3H]Rauwolscine). Particulars: 0.03 μM compound; read-out: Percentage inhibition of ligand binding, Adrenergic α2B. The procedure, abridged:
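Receptor expressed in CHO-K1 cells, assayed in 50 mM Tris-HCl pH 7.4 with 12.5 mM MgCl2, 1 mM EDTA and 0.2% BSA. Compounds were incubated with 2.5 nM [3H]Rauwolscine for 60 min at 25° C; 10 μM Prazosin defined non-specific binding. Filter counting gave percent inhibition of specific binding.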

Assay [2] concerns the target T2, human recombinant adrenergic α2A receptor (Homo sapiens, UniProt P08913).
T2 construct: expressed in transfected cells; host or cells: insect Sf9 cells
T2 sequence (P08913 1-465): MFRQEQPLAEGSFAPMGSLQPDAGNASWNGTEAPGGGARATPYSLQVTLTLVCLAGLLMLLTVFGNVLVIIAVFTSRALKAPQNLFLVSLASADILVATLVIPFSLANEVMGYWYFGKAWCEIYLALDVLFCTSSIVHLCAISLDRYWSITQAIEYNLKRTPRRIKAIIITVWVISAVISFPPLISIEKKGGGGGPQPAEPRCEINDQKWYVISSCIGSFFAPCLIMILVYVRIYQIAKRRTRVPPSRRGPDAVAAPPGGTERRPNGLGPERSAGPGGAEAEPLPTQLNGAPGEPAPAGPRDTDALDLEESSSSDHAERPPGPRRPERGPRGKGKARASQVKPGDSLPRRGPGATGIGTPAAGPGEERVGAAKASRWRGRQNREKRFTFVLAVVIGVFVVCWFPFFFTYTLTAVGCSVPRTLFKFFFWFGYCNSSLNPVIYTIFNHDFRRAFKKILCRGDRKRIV
Briefly: Radioligand binding, adrenergic α2A ([3H]MK-912). Particulars: 0.1 μM compound; read-out: Percentage inhibition of ligand binding, Adrenergic α2A. The procedure, abridged: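 Receptor expressed in Sf9 cells, in 50 mM Tris-HCl pH 7.4, 12.5 mM MgCl2, 2 mM EDTA; compounds incubated with 1 nM [3H]MK-912 for 60 min at 25 °C.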

Assay [3] concerns the target T3, rat adrenergic α1B receptor (Rattus norvegicus, UniProt P15823).
T3 construct: rat adrenergic α1B receptor obtained from Wistar Rat liver; from tissue; host or cells: Wistar rat liver
T3 sequence (P15823 1-515): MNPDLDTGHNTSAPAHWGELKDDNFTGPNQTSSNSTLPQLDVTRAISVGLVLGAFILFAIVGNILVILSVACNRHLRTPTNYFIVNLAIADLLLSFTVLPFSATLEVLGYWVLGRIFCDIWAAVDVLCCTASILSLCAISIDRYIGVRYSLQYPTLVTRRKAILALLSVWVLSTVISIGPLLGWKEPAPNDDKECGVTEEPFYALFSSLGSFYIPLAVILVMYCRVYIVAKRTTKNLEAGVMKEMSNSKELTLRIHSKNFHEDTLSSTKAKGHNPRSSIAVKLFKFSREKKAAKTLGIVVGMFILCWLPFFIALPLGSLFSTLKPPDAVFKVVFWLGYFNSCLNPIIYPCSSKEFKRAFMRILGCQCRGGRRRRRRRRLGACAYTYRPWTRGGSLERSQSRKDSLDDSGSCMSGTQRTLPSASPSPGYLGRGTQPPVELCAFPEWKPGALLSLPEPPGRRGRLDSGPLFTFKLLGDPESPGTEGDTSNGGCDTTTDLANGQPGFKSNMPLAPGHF
The assay can be described thus: Radioligand binding, adrenergic α1B ([3H]Prazosin). Particulars: 0.1 μM compound; read-out: Percentage inhibition of ligand binding, Adrenergic α1B. The procedure, abridged: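 Rat α1B receptor from Wistar rat liver was incubated with 0.25 nM [3H]prazosin for 60 min at 25 °C in 50 mM Tris-HCl, pH 7.4, 0.5 mM EDTA. Non-specific binding was defined with 10 μM phentolamine. Bound radioligand was measured by filtration and counting, reported as percent inhibition of specific binding.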

On to `Cc1ccc2c(c1)c1c(n2CC(O)c2ccncc2)CCN(CC(=O)O)C1` (stereo not drawn) [II-65, [5-(2-hydroxy-2-pyridin-4-yl-ethyl)-8-methyl-1,3,4,5-tetrahydro-pyrido[4,3-b]indol-2-yl]-acetic acid], for which the inhibition at 0.03 µM in assay [1] was determined as 25%. For the same molecule, the figures for the inhibition at 0.1 µM in assay [2] and in assay [3] were 12% and 10%, respectively.
For `CN1C2CCC1c1c(n(CC(O)c3ccncc3)c3ccc(Cl)cc13)C2` (stereo not drawn) [II-66] the same measures were 46%, 0% and 27%.
The like results for `CN1CCc2c(c3cc(OC(F)(F)F)ccc3n2CC(O)c2ccncc2)C1` (stereo not drawn) [II-67, 2-(2-methyl-8-trifluoromethoxy-1,2,3,4-tetrahydro-pyrido[4,3-b]indol-5-yl)-1-pyridin-4-yl-ethanol] were, in that order, 43%, -11% and 7%.
The like results for `CN1CCc2c(c3cc(C(C)(C)C)ccc3n2CC(O)c2ccncc2)C1` (stereo not drawn) [II-68, 2-(8-tert-butyl-2-methyl-1,2,3,4-tetrahydro-pyrido[4,3-b]indol-5-yl)-1-pyridin-4-yl-ethanol] were, in that order, 17%, 5% and 12%.
As for `Cc1ccc2c(c1)c1c(n2CC(O)c2ccncc2)CN2CCC1C2` (stereo not drawn) [II-69], the inhibition at 0.03 µM in assay [1] was 14%. For the same molecule, the inhibition at 0.1 µM in assay [2] worked out at 11%; in assay [3] it was 45%.
The like results for `CC1c2c(c3cc(Cl)ccc3n2CC(O)c2ccncc2)CCN1C` (stereo not drawn) [II-72] were, in that order, 47%, 25% and 30%.
The like results for `Cc1ccc2c(c1)c1c(n2CC(O)c2ccncc2)C(C)N(C)CC1` (stereo not drawn) [II-73] were, in that order, 33%, 28% and 34%.
For `CCC1c2c(c3cc(C)ccc3n2CC(O)c2ccncc2)CCN1C` (stereo not drawn) [II-74] the same measures were 18%, 10% and 11%.
Take `Cc1ccc2c(c1)c1c(n2CC(O)c2ccncc2)CCN(CCCO)C1` (stereo not drawn) [II-75, 3-(3,4-dihydro-5-(2-hydroxy-2-(pyridin-4-yl)ethyl)-8-methyl-1H-pyrido[4,3-b]indol-2(5H)-yl)propan-1-ol]: in assay [1], the inhibition at 0.03 µM is 35%. The inhibition at 0.1 µM came to 15% in assay [2] and 8% in assay [3].
The like results for `CN1CCc2c(c3cccnc3n2CC(O)c2ccncc2)C1` (stereo not drawn) [II-78] were, in that order, -9%, 1% and -11%.
The like results for `OC(Cn1c2c(c3cccnc31)C1CCCN1CC2)c1ccncc1` (stereo not drawn) [II-79] were, in that order, 59%, 0% and 7%.
Take `Cc1ccc2c(c1)c1c(n2CC(C)(O)c2ccc(O)nc2)CCN(C)C1` (stereo not drawn) [II-80, 5-[2-(2,8-dimethyl-1,2,3,4-tetrahydro-pyrido[4,3-b]indol-5-yl)-1-hydroxy-1-methyl-ethyl]-pyridin-2-ol]: the inhibition at 0.03 µM in assay [1] came out at 9%. Besides, the inhibition at 0.1 µM in assay [2] was 3%; in assay [3], 4%.
For `OCc1ccc2c(c1)c1c(n2CC(O)c2ccncc2)CCNC1` (stereo not drawn) [II-81, 2-(8-hydroxymethyl-1,2,3,4-tetrahydro-pyrido[4,3-b]indol-5-yl)-1-pyridin-4-yl-ethanol] the same measures were -9%, 15% and -1%.
The like results for `OC(Cn1c2c(c3ccccc31)C1CCC(C2)N1)c1ccncc1` (stereo not drawn) [II-85] were, in that order, -2%, 15% and -7%.
The like results for `OC(Cn1c2c(c3cc(Cl)cnc31)CN1CCCC1C2)c1ccncc1` (stereo not drawn) [II-86] were, in that order, 35%, 27% and 44%.

Broadly, the inhibition is the change of the read-out against control, counted positive when it falls.
